Test results as given in patent US20080261291A1 (priority 2004, published 2008).

Tested on: hairy scalp of men with premature alopecia
Details: 0.5% in excipient, 0.5 to 1 ml on the head scalp, one week
Method: It is wanted to evaluate the genin of Calocarpum, (Chrysophyllum or Lucuma) as obtained of the example 6 according to this invention, as capillary rubefacient agent for which six affected gentlemen of premature alopecia are tried, to witch are requested to subject themselves to one weeks of test, which consists on being applied from 0.5 to 1 ml of the diluted products in test in the affected area of the head scalp in the clean skin. The two men of the group #1, receives the mixture of genin of Calocarpum, in a preparation consisting on the product as obtained of the example 6, to 0.5% in an excipient. The excipient composition for 100 g is: water 20 g, propyleneglycol 25 g, sunflower oil 54.5 g. The two men of the group #2, receives the same composition of the previous excipient and resorcinol to 0.5%. The two men of the group #3, receives the before mentioned excipient alone. The following questionnaire is registered and the pertinent observations of the test are made.
Age; sex; since when they present the alopecia; duration of the applied treatment; 1.—Was the treatment irritating: a) it was not irritating, b) light, c) moderate, d) high, e) severe. 2.—Irritation type: a) hyperaemia (heat), b) inflammation, c) vesicatión (it produces blisters) 3.—keratolytic (desquamation production): a) without effect, b) light, c) moderate, d) extensive. […]

With `Oc1cccc(O)c1` [resorcinol] the “keratolysis (desquamation production)” value was “moderate keratolysis”.
